Measurements reported in ChEMBL document CHEMBL4316596, “Antimicrobial Peptides with High Proteolytic Resistance for Combating Gram-Negative Bacteria” (J Med Chem, 2019).

Columns and labels:
Escherichia coli [1] = assay: Antimicrobial activity against Escherichia coli 078 after 24 hrs by NCCLS-protocol based assay; format: functional; details: Escherichia coli, 078, 24 h
Escherichia coli [2] = assay: Bactericidal activity against Escherichia coli ATCC 25922 incubated for 4 hrs followed by culture spread on agar plates and cultured overnight in presence of NaCl; format: functional; details: ATCC 25922, 4 h, read-out: MBC>99.9
Escherichia coli [3] = assay: Bactericidal activity against Escherichia coli ATCC 25922 incubated for 4 hrs followed by culture spread on agar plates and cultured overnight; format: functional; details: ATCC 25922, 4 h, read-out: MBC>99.9
Escherichia coli [4] = assay: Bactericidal activity against Escherichia coli ATCC 25922 incubated for 4 hrs followed by culture spread on agar plates and cultured overnight in presence of NH4Cl; format: functional; details: ATCC 25922, 4 h, read-out: MBC>99.9
Escherichia coli [5] = assay: Bactericidal activity against Escherichia coli K99 incubated for 4 hrs followed by culture spread on agar plates and cultured overnight; format: functional; details: K99, 4 h, read-out: MBC>99.9
[6] = Antimicrobial activity against Salmonella pullorum C7913 after 24 hrs by NCCLS-protocol based assay; format: functional, Salmonella enterica subsp. enterica serovar Pullorum; details: Salmonella enterica, C7913, 24 h
Escherichia coli [7] = assay: Antimicrobial activity against Escherichia coli K88 after 24 hrs by NCCLS-protocol based assay; format: functional; details: K88, 24 h
Pseudomonas aeruginosa [8] = assay: Antimicrobial activity against Pseudomonas aeruginosa 25349 clinical isolates after 24 hrs by NCCLS-protocol based assay; format: functional; details: Pseudomonas aeruginosa, 25349, 24 h
Escherichia coli [9] = assay: Bactericidal activity against Escherichia coli ATCC 25922 incubated for 4 hrs followed by culture spread on agar plates and cultured overnight in presence of 25% serum albumin; format: functional; details: ATCC 25922, 4 h, read-out: MBC>99.9
Pseudomonas aeruginosa [10] = assay: Bactericidal activity against Pseudomonas aeruginosa ATCC 27853 incubated for 4 hrs followed by culture spread on agar plates and cultured overnight; format: functional; details: ATCC 27853, 4 h, read-out: MBC>99.9
Pseudomonas aeruginosa [11] = assay: Bactericidal activity against Pseudomonas aeruginosa CICC 21630 clinical isolates incubated for 4 hrs followed by culture spread on agar plates and cultured overnight; format: functional; details: CICC 21630, 4 h, read-out: MBC>99.9
Escherichia coli [12] = assay: Antimicrobial activity against Escherichia coli K99 after 24 hrs by NCCLS-protocol based assay; format: functional; details: K99, 24 h
Salmonella typhimurium [13] = assay: Bactericidal activity against Salmonella typhimurium C7731 incubated for 4 hrs followed by culture spread on agar plates and cultured overnight; format: functional, Salmonella enterica subsp. enterica serovar Typhimurium; details: Salmonella enterica, C7731, 4 h; read-out: MBC>99.9
Salmonella typhimurium [14] = assay: Antimicrobial activity against Salmonella typhimurium C7731 after 24 hrs by NCCLS-protocol based assay; format: functional, Salmonella enterica subsp. enterica serovar Typhimurium; details: Salmonella enterica, C7731, 24 h
Pseudomonas aeruginosa [15] = assay: Bactericidal activity against Pseudomonas aeruginosa 26305 clinical isolates incubated for 4 hrs followed by culture spread on agar plates and cultured overnight; format: functional; details: Pseudomonas aeruginosa, 26305, 4 h; read-out: MBC>99.9
Acinetobacter baumannii [16] = assay: Antimicrobial activity against Acinetobacter baumannii after 24 hrs by NCCLS-protocol based assay; format: functional
Escherichia coli [17] = assay: Bactericidal activity against Escherichia coli K88 incubated for 4 hrs followed by culture spread on agar plates and cultured overnight; format: functional; details: K88, 4 h, read-out: MBC>99.9
Escherichia coli [18] = assay: Bactericidal activity against Escherichia coli ATCC 25922 incubated for 4 hrs followed by culture spread on agar plates and cultured overnight in presence of FeCl3; format: functional; details: ATCC 25922, 4 h, read-out: MBC>99.9
Escherichia coli [19] = assay: Antimicrobial activity against Escherichia coli ATCC 25922 after 24 hrs by NCCLS-protocol based assay; format: functional; details: ATCC 25922, 24 h
Escherichia coli [20] = assay: Bactericidal activity against Escherichia coli ATCC 25922 incubated for 4 hrs followed by culture spread on agar plates and cultured overnight in presence of 12.5% serum albumin; format: functional; details: ATCC 25922, 4 h, read-out: MBC>99.9
Salmonella typhimurium [21] = assay: Bactericidal activity against Salmonella typhimurium ATCC 14028 incubated for 4 hrs followed by culture spread on agar plates and cultured overnight; format: functional, Salmonella enterica subsp. enterica serovar Typhimurium; details: Salmonella enterica, ATCC 14028, 4 h; read-out: MBC>99.9
Pseudomonas aeruginosa [22] = assay: Antimicrobial activity against Pseudomonas aeruginosa CICC 21630 clinical isolates after 24 hrs by NCCLS-protocol based assay; format: functional; details: CICC 21630, 24 h
Pseudomonas aeruginosa [23] = assay: Antimicrobial activity against Pseudomonas aeruginosa ATCC 27853 after 24 hrs by NCCLS-protocol based assay; format: functional; details: ATCC 27853, 24 h
Klebsiella pneumoniae [24] = assay: Antimicrobial activity against Klebsiella pneumoniae after 24 hrs by NCCLS-protocol based assay; format: functional
[25] = Bactericidal activity against Salmonella pullorum C7913 incubated for 4 hrs followed by culture spread on agar plates and cultured overnight; format: functional, Salmonella enterica subsp. enterica serovar Pullorum; details: Salmonella enterica, C7913, 4 h; read-out: MBC>99.9
Escherichia coli [26] = assay: Bactericidal activity against Escherichia coli ATCC 25922 incubated for 4 hrs followed by culture spread on agar plates and cultured overnight in presence of CaCl2; format: functional; details: ATCC 25922, 4 h, read-out: MBC>99.9
Escherichia coli [27] = assay: Antimicrobial activity against Escherichia coli UB1005 after 24 hrs by NCCLS-protocol based assay; format: functional; details: UB1005, 24 h
Escherichia coli [28] = assay: Bactericidal activity against Escherichia coli UB1005 incubated for 4 hrs followed by culture spread on agar plates and cultured overnight; format: functional; details: UB1005, 4 h, read-out: MBC>99.9
Escherichia coli [29] = assay: Bactericidal activity against Escherichia coli ATCC 25922 incubated for 4 hrs followed by culture spread on agar plates and cultured overnight in presence of KCl; format: functional; details: ATCC 25922, 4 h, read-out: MBC>99.9
Escherichia coli [30] = assay: Bactericidal activity against Escherichia coli ATCC 25922 incubated for 4 hrs followed by culture spread on agar plates and cultured overnight in presence of MgCl2; format: functional; details: ATCC 25922, 4 h, read-out: MBC>99.9
Pseudomonas aeruginosa [31] = assay: Antimicrobial activity against Pseudomonas aeruginosa CICC 21625 clinical isolates after 24 hrs by NCCLS-protocol based assay; format: functional; details: CICC 21625, 24 h
Salmonella typhimurium [32] = assay: Antimicrobial activity against Salmonella typhimurium ATCC 14028 after 24 hrs by NCCLS-protocol based assay; format: functional, Salmonella enterica subsp. enterica serovar Typhimurium; details: Salmonella enterica, ATCC 14028, 24 h
Pseudomonas aeruginosa [33] = assay: Bactericidal activity against Pseudomonas aeruginosa 25349 clinical isolates incubated for 4 hrs followed by culture spread on agar plates and cultured overnight; format: functional; details: Pseudomonas aeruginosa, 25349, 4 h; read-out: MBC>99.9
Pseudomonas aeruginosa [34] = assay: Antimicrobial activity against Pseudomonas aeruginosa 26305 clinical isolates after 24 hrs by NCCLS-protocol based assay; format: functional; details: Pseudomonas aeruginosa, 26305, 24 h
Pseudomonas aeruginosa [35] = assay: Bactericidal activity against Pseudomonas aeruginosa CICC 21625 clinical isolates incubated for 4 hrs followed by culture spread on agar plates and cultured overnight; format: functional; details: CICC 21625, 4 h, read-out: MBC>99.9
Pseudomonas aeruginosa [36] = assay: Bactericidal activity against Pseudomonas aeruginosa PAO1 incubated for 4 hrs followed by culture spread on agar plates and cultured overnight; format: functional; details: PAO1, 4 h, read-out: MBC>99.9
Escherichia coli [37] = assay: Bactericidal activity against Escherichia coli 078 incubated for 4 hrs followed by culture spread on agar plates and cultured overnight; format: functional; details: Escherichia coli, 078, 4 h; read-out: MBC>99.9
Klebsiella pneumoniae [38] = assay: Bactericidal activity against Klebsiella pneumoniae incubated for 4 hrs followed by culture spread on agar plates and cultured overnight; format: functional; details: read-out: MBC>99.9
Escherichia coli [39] = assay: Bactericidal activity against Escherichia coli ATCC 25922 incubated for 4 hrs followed by culture spread on agar plates and cultured overnight in presence of 50% serum albumin; format: functional; details: ATCC 25922, 4 h, read-out: MBC>99.9
Pseudomonas aeruginosa [40] = assay: Antimicrobial activity against Pseudomonas aeruginosa PAO1 after 24 hrs by NCCLS-protocol based assay; format: functional; details: PAO1, 24 h
Escherichia coli [41] = assay: Bactericidal activity against Escherichia coli ATCC 25922 incubated for 4 hrs followed by culture spread on agar plates and cultured overnight in presence of ZnCl2; format: functional; details: ATCC 25922, 4 h, read-out: MBC>99.9
Acinetobacter baumannii [42] = assay: Bactericidal activity against Acinetobacter baumannii incubated for 4 hrs followed by culture spread on agar plates and cultured overnight; format: functional; details: read-out: MBC>99.9

## H-LRPLLRPLLRPLLRPLLRPLLRPL-NH2
Escherichia coli [1]
  MIC95: 2 µM
Escherichia coli [2]
  MBC: 4 µM
Escherichia coli [3]
  MBC: 2 µM
Escherichia coli [4]
  MBC: 2 µM
Escherichia coli [5]
  MBC: 4 µM
[6]
  MIC95: 2 µM
Escherichia coli [7]
  MIC95: 2 µM
Pseudomonas aeruginosa [8]
  MIC95: 32 µM
Escherichia coli [9]
  MBC: 16 µM
Pseudomonas aeruginosa [10]
  MBC: 16 µM
Pseudomonas aeruginosa [11]
  MBC: 16 µM
Escherichia coli [12]
  MIC95: 2 µM
Salmonella typhimurium [13]
  MBC: 8 µM
Salmonella typhimurium [14]
  MIC95: 2 µM
Pseudomonas aeruginosa [15]
  MBC: 32 µM
Acinetobacter baumannii [16]
  MIC95: 2 µM
Escherichia coli [17]
  MBC: 4 µM
Escherichia coli [18]
  MBC: 4 µM
Escherichia coli [19]
  MIC95: 2 µM
Escherichia coli [20]
  MBC: 8 µM
Salmonella typhimurium [21]
  MBC: 8 µM
Pseudomonas aeruginosa [22]
  MIC95: 8 µM
Pseudomonas aeruginosa [23]
  MIC95: 8 µM
Klebsiella pneumoniae [24]
  MIC95: 8 µM
[25]
  MBC: 4 µM
Escherichia coli [26]
  MBC: > 128 µM
Escherichia coli [27]
  MIC95: 2 µM
Escherichia coli [28]
  MBC: 4 µM
Escherichia coli [29]
  MBC: 2 µM
Escherichia coli [30]
  MBC: 4 µM
Pseudomonas aeruginosa [31]
  MIC95: 32 µM
Salmonella typhimurium [32]
  MIC95: 4 µM
Pseudomonas aeruginosa [33]
  MBC: 32 µM
Pseudomonas aeruginosa [34]
  MIC95: 32 µM
Pseudomonas aeruginosa [35]
  MBC: 32 µM
Pseudomonas aeruginosa [36]
  MBC: 8 µM
Escherichia coli [37]
  MBC: 2 µM
Klebsiella pneumoniae [38]
  MBC: 8 µM
Escherichia coli [39]
  MBC: 32 µM
Pseudomonas aeruginosa [40]
  MIC95: 4 µM
Escherichia coli [41]
  MBC: 2 µM
Acinetobacter baumannii [42]
  MBC: 4 µM

## H-IRPIIRPIIRPIIRPIIRPIIRPI-NH2
Escherichia coli [1]
  MIC95: 2 µM
Escherichia coli [2]
  MBC: 32 µM
Escherichia coli [3]
  MBC: 2 µM
Escherichia coli [4]
  MBC: 8 µM
Escherichia coli [5]
  MBC: 4 µM
[6]
  MIC95: 4 µM
Escherichia coli [7]
  MIC95: 1 µM
Pseudomonas aeruginosa [8]
  MIC95: > 64 µM
Escherichia coli [9]
  MBC: 32 µM
Pseudomonas aeruginosa [10]
  MBC: 16 µM
Pseudomonas aeruginosa [11]
  MBC: > 64 µM
Escherichia coli [12]
  MIC95: 2 µM
Salmonella typhimurium [13]
  MBC: 4 µM
Salmonella typhimurium [14]
  MIC95: 4 µM
Pseudomonas aeruginosa [15]
  MBC: > 64 µM
Acinetobacter baumannii [16]
  MIC95: 4 µM
Escherichia coli [17]
  MBC: 1 µM
Escherichia coli [18]
  MBC: 8 µM
Escherichia coli [19]
  MIC95: 2 µM
Escherichia coli [20]
  MBC: 16 µM
Salmonella typhimurium [21]
  MBC: 4 µM
Pseudomonas aeruginosa [22]
  MIC95: > 64 µM
Pseudomonas aeruginosa [23]
  MIC95: 8 µM
Klebsiella pneumoniae [24]
  MIC95: 16 µM
[25]
  MBC: 8 µM
Escherichia coli [26]
  MBC: > 128 µM
Escherichia coli [27]
  MIC95: 2 µM
Escherichia coli [28]
  MBC: 2 µM
Escherichia coli [29]
  MBC: 4 µM
Escherichia coli [30]
  MBC: 8 µM
Pseudomonas aeruginosa [31]
  MIC95: > 64 µM
Salmonella typhimurium [32]
  MIC95: 4 µM
Pseudomonas aeruginosa [33]
  MBC: > 64 µM
Pseudomonas aeruginosa [34]
  MIC95: > 64 µM
Pseudomonas aeruginosa [35]
  MBC: > 64 µM
Pseudomonas aeruginosa [36]
  MBC: 16 µM
Escherichia coli [37]
  MBC: 2 µM
Klebsiella pneumoniae [38]
  MBC: 8 µM
Escherichia coli [39]
  MBC: 64 µM
Pseudomonas aeruginosa [40]
  MIC95: 8 µM
Escherichia coli [41]
  MBC: 4 µM
Acinetobacter baumannii [42]
  MBC: 8 µM
